# Non-standard residues stand in square brackets, D forms with d. No end group written: not given here. pY = N[C@@H](Cc1ccc(OP(=O)(O)O)cc1)C(=O)O
# T1: EGFP-Grb7 SH2 (human)
# T1 construct: SH2 domain of Grb7, inserted at the C terminus of the EGFP tag; also called GFP-Grb7 SH2 domain; Grb7 SH2 domain; source: HEK293T, transfected (calcium phosphate), in lysate; not shown: EGFP, N-terminal, kept
# T1 chain: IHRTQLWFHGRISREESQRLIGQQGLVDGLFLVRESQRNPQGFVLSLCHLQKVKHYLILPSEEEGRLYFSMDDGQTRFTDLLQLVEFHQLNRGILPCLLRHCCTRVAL
# B1: nonphosphorylated 41-A ligand (peptide)
# peptide: VAVGIPTQPTTSSEPSPPSNPPWDPGRV
# notes: stretch of peptide 41 with its first 22-residue motif; also called peptide 41-A; source: synthetic peptide (China Peptides Co., Ltd.)
# B2: 41-mRLUC-3×Flag: fusion protein of peptide 41 with mRLUC and 3×Flag, expressed from transfected plasmid (protein)
# chain: VGTWTTRGPWCPCVAVGIPTQPTTSSEPSPPSNPPWDPGRVLLGRIVWPGLLALGIPTHHQNDTYNSPHAHPNRDP
# modifications: left off: mRLUC, C-terminal, kept | 3×Flag, C-terminal, kept
# notes: fusion protein of peptide 41 with mRLUC and 3×Flag, expressed from transfected plasmid
# B3: phosphorylated ligand pY (1180) from ErbB3 (peptide)
# peptide: DEEYE[pY]MNRRR
# notes: ErbB3 stretch around Y1180; source: synthetic peptide (China Peptides Co., Ltd.)
# Legend:
# [1] = test system: EYFP-tagged Grb7 SH2 domain; assay: Bioluminescence Resonance Energy Transfer (BRET) in HEK293T cells; assay type: cell-based; conditions: 36 h after transfection, EYFP-Grb7 SH2 + mRLUC-tagged peptide, coelenterazine 5.9 µM, eighteen group ratios
# Source text: For the BRET assay, the EYFP fragment was generated by PCR amplification. The ErbB3-mRLUC plasmid was constructed by the Beijing Sino Biological Inc. The SH2 domain of Grb7 was fused to the EYFP fragment, and the nonphosphorylated peptides 10 and 41 were fused to the mRLUC fragment. The Grb7 SH2 domain sequence was inserted at the C-terminus of the EYFP tag.
# HEK293T cells at 70%–80% confluency were given fresh DMEM (high glucose) culture medium and transfected with plasmids using the calcium phosphate method. Samples were collected at 36 h after transfection.
# In BRET, the Renilla luciferase (mRLUC) is fused to the candidate protein, and the green fluorescent protein mutant (EYFP) is fused to the target protein. Interactions between the two fused proteins bring the luciferase and the green fluorescent protein into close proximity, which promotes resonance energy transfer from mRLUC to EYFP [38]. Then EYFP is […] at 530 nm, and the emission is used to determine the binding between the two interacting proteins. In this study, HEK293T cells were collected at 36 h after transfection, 100 µL of mixed cell suspension was added to the u-bottom 96-well microtiter plates (Corning, USA) before measurement. The measurement of bioluminescence, with rasters of 460/40 nm and 518/20 nm, was performed on Synergy4 Multi-Mode Microplates Readers (BioTek, USA). The BRET reaction was initiated by 5.9 µM coelenterazine (Promega, USA). Data were analyzed by one-factor analysis of variance using SPSS 17.0.
# Grb7 SH2 domain = assay: Yeast two-hybrid, Grb7 SH2 domain; assay type: cell-based; conditions: yeast strain CG1945, GAL4 BD-SH2 bait, SD/-Trp-His-Leu selection and three independent improved LacZ tests
# Source text: To see whether the conserved residues were required for association with the Grb7 SH2 domain, the peptide 10 was used as the mutation template to design three mutated peptides: the N-GIPT deletion mutation (10AM), the C-GIP deletion mutation (10BM) and the both N-GIPT and C-GIP deletion mutation (10CM).
# The ABL_1 and Grb2 plasmids were gifts from Professor Ruibao Ren (Brandeis University, USA), and the Grb7 (BC006535) and Grb14 cDNA (BC053559) plasmids were from the Proteintech Group. The inserted sequences of the SH2 domains were as follows: Grb7: N-[…]-C; Grb2: N-[…]-C; ABL_1: N-[…]-C; and Grb14: N-[…]-C.
# In the mutation assay, the control and mutation sequences were as follows:
# The GAL4 BD-SH2 fusion bait plasmids were transformed into the yeast strain CG1945 using the lithium acetate protocol. The transformants were grown on SD/-Trp plates and spread on SD/-Trp-His plates for self-activation estimation. Those transformants without background growth or growth inhibited by 3-amino-1, 2, 4-triazole were selected for the subsequent screening. Approximately 3.01×10^6 clones of the random peptide library (Protocol No. PT303921, Clontech, USA), as AD baits, were effectively transformed into yeast strain CG 1945 containing BD bait plasmids and used to be screened according to the MATCHMAKER Two-Hybrid System protocol (Cat. No. 630489, Clontech, USA). Plasmids of potential positive transformants selected on plates with SD/-Trp-His-Leu medium in the primary screening were isolated and retransformed into the CG1945 cells containing the corresponding SH2 bait plasmids. The improved LacZ assay was then performed. Clones that were positive for all of the reporter assays and confirmed by three independent improved LacZ tests were selected for specific interactions.
# [2] = target: T2, GFP-Grb7 SH2 domain and 41-mRLUC-3×Flag complex (Homo sapiens, UniProt Q14451); assay: Competition immunoprecipitation, GFP-Grb7 SH2 domain and 41-mRLUC-3×Flag complex; assay type: binding
# T2 construct: expressed in transfected cells; host or cells: HEK293T
# Source text: To see whether the nonphosphorylated peptide could effectively compete with phosphorylated ligand for binding to the Grb7 SH2 domain, the phosphorylated ligand pY (1180) (DEEYEpY(1180)MNRRR), which was previously shown to interact with the Grb7 SH2 domain [6], and the nonphosphorylated 41-A ligand ([…]), which contains the first twenty-two amino acid-motif close to the N-terminus of peptide 41, were examine for their abilities to interfere with the GFP-Grb7 SH2 domain and 41-mRLUC-3×Flag complex using immunoprecipitation with anti-GFP antibody.
# The phosphorylated ligand pY (1180) (DEEYEpY(1180)MNRRR) from the ErbB3 and the nonphosphorylated peptide 41-A ([…] RV) from nonphosphorylated peptide 41 were synthesized by the China Peptides Co., Ltd. The HPLC purification analysis and MS quality analysis reports were obtained.
# HEK293T cells were washed 5 times with ice-cold PBS buffer and scraped off the plates into cell lysis buffer (1% Nonidet P-40, 0.02 M TRIS (pH 7.5), 0.15 M sodium chloride, 0.001 M EDTA, 0.5% sodium deoxycholate, 0.1% SDS and 0.001 M PMSF). Lysates were incubated on ice for 5 minutes, vortexed 2 times for 30 seconds each and centrifuged at 12,000 rpm for 15 minutes at 4°C. After centrifuging twice, the supernatant was incubated with anti-Flag antibody (1∶100, M20008M, Abmart, China) for 6–8 h at 4°C. Protein G agarose (40 µL) was added into 1 mL of the above mixture and coupled to the anti-Flag antibody for 3 h at 4°C. The immunoprecipitates were washed 2–3 times with PBS buffer (PH 7.4), and the sediments were diluted with 5×SDS electrophoresis buffer and heated at 97°C for 10 minutes. The proteins were separated by SDS-PAGE and transferred to PVDF membranes (IPVH00010, Millipore, USA). The membranes were incubated with anti-GFP antibody (1∶2000, P30010, Abmart, China) and goat anti-rabbit secondary antibody (1∶4000, M21002, Abmart, China) to identify target proteins. For the competition analyses, the immunoprecipitation complexes were mixed with anti-Flag antibody and different concentrations of the synthesized phosphorylated ligands or the nonphosphorylated ligands. The proteins were separated by SDS-PAGE, and the SH2 domain of Grb7 protein was analyzed using anti-GFP antibody. Western blot analysis was carried out using the Image J [37], the IC50 values were calculated by regression analyses using SPSS 17.0.
# EGFP-Grb7 SH2 = target: T1, EGFP-Grb7 SH2; assay: co-IP; competition: synthetic peptide (0.0072, 0.036, 0.18 mM) added to the immunoprecipitation complexes of Grb7 SH2 domain and 41-mRLUC-3×Flag; Grb7 SH2 blotted with anti-GFP, bands scanned (ImageJ), IC50 by regression; conditions: one partner purified
# [3] = test system: SK-BR-3 breast cancer cells; assay: MTS cell proliferation assay; assay type: cell-based; conditions: beginning from 24 h (measured 18, 24, 36, 48, 60 h after transfection), absorbance 492 nm, vs mRLUC-3×Flag control, p<0.01
# Experimental: For the cell proliferation assay, the anti-Grb7 antibody (N-20, Santa Cruz Biotechnology, USA) and the anti-Flag antibody (M20008M, Abmart, China) were used for the western blot, and MTS (Promega, USA) was used for the analysis of cell proliferation.
# The MTS cell proliferation assay was performed to analyze the proliferation of SK-BR-3 breast cancer cells (Cell culture center of PUMC, China) according to the manufacturer's instructions (Promega, USA). SK-BR-3 cells at 70%–80% confluency were transiently transfected respectively with plasmids of 41-mRLUC-3×Flag or mRLUC-3×Flag and Mega Tran 1.0 (OriGene, USA). Beginning from 12 h after transfection, 400 µg/mL G418 (11811-023, Invitrogen, USA) was used to select for the transfected cells. The u-bottom 96-well microtiter plates (Corning, USA) were seeded with approximately 7.50×10^3 cells per well at 18 h after transfection. […] The absorbance at 492 nm of transfected cells and control DMEM medium was measured separately at 18 h, 24 h, 36 h, 48 h and 60 h after transfection on Synergy4 Multi-Mode Microplates Readers (BioTek, USA). The absorbance was adjusted by differences in the absorbance between cell culture medium and control medium without seeded cells. The data were analyzed by double-factor variance analysis using SPSS 17.0.
molecule,measurement,setting,value
"ErbB3: mRLUC-tagged ErbB3, expressed from ErbB3-mRLUC plasmid",BRET luminescence ratio of 530/480 nm,[1],strongest luminescence
"N-AGVESL YTPTTPTLLLTRPLPGIPRGLRGW-C [10AM, N-GIPT deletion mutation of peptide 10]",recognition by / interaction with the Grb7 SH2 domain,Grb7 SH2 domain,None of the three mutations were recognized by the Grb7 SH2 domain
"N-AGVESLGIPNYTPTTPTLLLTRPLP RGLRGW-C (AGVESLGIPNYTPTTPTLLLTRPLPRGLRGW; left off: Gal4 activation domain (inferred: two-hybrid prey), end not stated, kept) [10BM, C-GIP deletion mutation of peptide 10]",recognition by / interaction with the Grb7 SH2 domain,Grb7 SH2 domain,None of the three mutations were recognized by the Grb7 SH2 domain
"N-AGVESLYTPTTPTLLLTRPLPRGLRGW-C [peptide 10CM, both N-GIPT and C-GIP deletion mutation of peptide 10]",recognition by / interaction with the Grb7 SH2 domain,Grb7 SH2 domain,None of the three mutations were recognized by the Grb7 SH2 domain
same,BRET luminescence ratio of 530/480 nm,[1],non-interacting
"N-GMWEGLEGGGVAGVESLGIPNYTPTTPTLLLTRPLPGIPRGLRGWSLLRCCRLLCRNSYITAAPKHHHPLQTSPRGSPGLQEFDIKLIDTVDLEGGPGTQFAL-C [peptide 10, nonphosphorylated peptide identified from random peptide library; mutation template]",BRET luminescence ratio of 530/480 nm,[1],significantly stronger
same,BRET luminescence ratio of 530/480 nm,[1]; listed as Peptide 10,slightly stronger BRET signals compared to peptide 41
"VAVGIPTQPTTSSEPSPPSNPPWDPGRV [peptide 41-A, synthesized nonphosphorylated ligand containing the first twenty-two amino acid-motif of peptide 41]",interference with binding of the Grb7 SH2 domain to peptide 41,[2]; 0.0072 mM,did not significantly interfere
same,interference with binding of the Grb7 SH2 domain to peptide 41,[2]; 0.036 mM,did not significantly interfere
same,interference with binding of the Grb7 SH2 domain to peptide 41,[2]; 0.18 mM,nearly abolished
same,disruptive effect on the Grb7 SH2 domain/peptide 41 interaction,"[2]; Figure 3A, overall, concentration not given",even stronger than that of the pY (1180) ligand
same,"binding affinity to the Grb7 SH2 domain, comparison of 41-A and pY (1180)","[2]; in vitro competition, in words",at least comparable binding affinities to the Grb7 SH2 domain
B1,IC50,EGFP-Grb7 SH2,18.8 µM
B2,proliferation of transfected SK-BR-3 cells (MTS absorbance),[3],significantly slower than that of the mRLUC-3×Flag control group
B3,IC50,EGFP-Grb7 SH2,31.8 µM

# Reference: PMC3256188, “Novel Nonphosphorylated Peptides with Conserved Sequences Selectively Bind to Grb7 SH2 Domain with Affinity Comparable to Its Phosphorylated Ligand” (PLoS ONE, 2012)
